What was measured:
Alternaria brassicae = assay: In vivo test on Alternaria brassicae (leaf spot of crucifers); details: for effectiveness on Alternaria brassicae: 330 ppm, comparison compounds of WO 01/11965
Method: In Vivo Test on Alternaria brassicae (Leaf Spot of Crucifers)
The active ingredient tested is prepared by potter homogenisation in a concentrated suspension type formulation at 100 g/l. This suspension is then diluted with water to obtain the desired active material concentration.
Radish plants (Pernot variety) in starter cups, sown on a 50/50 peat soil-pozzolana substrate and grown at 18-20° C., are treated at the cotyledon stage by spraying with the aqueous suspension described above.
Plants, used as controls, are treated with an aqueous solution not containing the active material.
After 24 hours, the plants are contaminated by spraying them with an aqueous suspension of Alternaria brassicae spores (40,000 spores per cm^3). The spores are collected from a 12-13-day-old culture.
The contaminated radish plants are incubated for 6-7 days at about 18° C., under a humid atmosphere.
Grading is carried out 6 to 7 days after the contamination, in comparison with the control plants.

Botrytis cinerea = assay: Effectiveness on Botrytis cinerea; type: in vivo; details: 330 ppm; comparison compounds of WO 01/11965
Peronospora parasitica = assay: Efficacy against Peronospora parasitica; type: in vivo; details: 330 ppm; comparison compound of WO 01/11965

Compound | good (at least 50%) [protection] versus control plants (Alternaria brassicae; radish plants (Pernot variety), preventive spray 24 hours before contamination, dose 500 ppm, grading 6 to 7 days after contamination) | effectiveness on Botrytis cinerea (Botrytis cinerea) | effectiveness on Alternaria brassicae (Alternaria brassicae) | efficacy against Peronospora parasitica (Peronospora parasitica)
O=C(NCCc1ncc(Br)cn1)c1ccccc1C(F)(F)F [Compound A-1, N-[2-(5-bromopyrimidin-2-yl)ethyl]-2-(trifluoromethyl)benzamide] | at least 50% | – | – | –
O=C(Cc1cccs1)NCc1ncc(C(F)(F)F)cc1Cl [compound 101, N-{[3-chloro-5-(trifluoromethyl)-2-pyridinyl]methyl}-5-thienylacetamide] | – | no efficacy | poor efficacy | no efficacy
CCNC(=O)C(Cc1ncc(C(F)(F)F)cc1Cl)NC(=O)c1ccccc1 (stereo not shown) [compound 304, N-{1-ethylcarbamoyl-2-[3-chloro-5-(trifluoromethyl)-2-pyridinyl]-ethyl}-benzamide] | – | zero effectiveness | – | –
CCNC(=O)C(Cc1ncc(C(F)(F)F)cc1Cl)NC(=O)c1ccc(Cl)cc1 (stereo not shown) [compound 306, N-{1-ethylcarbamoyl-2-[3-chloro-5-(trifluoromethyl)-2-pyridinyl]ethyl}-4-chlorobenzamide] | – | zero effectiveness | – | –
CCNC(=O)C(Cc1ncc(C(F)(F)F)cc1Cl)NC(=O)c1cccc([N+](=O)[O-])c1 (stereo not shown) [compound 307, N-{1-ethylcarbamoyl-2-[3-chloro-5-(trifluoromethyl)-2-pyridinyl]ethyl}-3-nitrobenzamide] | – | zero effectiveness | poor effectiveness | –
CCNC(=O)C(Cc1ncc(C(F)(F)F)cc1Cl)NC(=O)c1ccccc1Br (stereo not shown) [compound 310, N-{1-ethylcarbamoyl-2-[3-chloro-5-(trifluoromethyl)-2-pyridinyl]ethyl}-2-bromobenzamide] | – | zero effectiveness | – | –
CNC(=O)C(Cc1ncc(C(F)(F)F)cc1Cl)NC(=O)c1ccccc1 (stereo not shown) [compound 314, N-{1-methylcarbamoyl-2-[3-chloro-5-(trifluoromethyl)-2-pyridinyl]ethyl}-benzamide] | – | zero effectiveness | – | –
CNC(=O)C(Cc1ncc(C(F)(F)F)cc1Cl)NC(=O)c1ccc(OC)cc1 (stereo not shown) [compound 315, N-{1-methylcarbamoyl-2-[3-chloro-5-(trifluoromethyl)-2-pyridinyl]ethyl}-4-methoxybenzamide] | – | zero effectiveness | – | –
CNC(=O)C(Cc1ncc(C(F)(F)F)cc1Cl)NC(=O)c1ccc(-c2ccccc2)cc1 (stereo not shown) [compound 316, N-{1-methylcarbamoyl-2-[3-chloro-5-(trifluoromethyl)-2-pyridinyl]-ethyl}-4-phenylbenzamide] | – | zero effectiveness | poor effectiveness | –
